System: tobacco budworm (Heliothis virescens [Fabricius])
Assay: surface-treated diet test against the tobacco budworm
Assay type: in vivo
Settings: tobacco budworm second instar larvae, 0.25 millimoles of candidate insecticide on the surface of the diet, five-day exposure; for Percent Mortality: compared to total number of insects infested; for Percent Growth Inhibition: inhibition of insect weight relative to untreated controls
In short: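 Wheat germ artificial diet surface-treated with 40 µL of 50 mM DMSO stock diluted 1:7 in 1:1 water/acetone (0.25 millimolar on diet), or sub-multiples for rate tests. One second-instar larva per well, 25° C, 60% RH, 5 days; percent weight inhibition vs DMSO controls and percent mortality.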

Row | SMILES | Percent Mortality (surface-treated diet) [%] | Percent Growth Inhibition (surface-treated diet) [%] | Percent Mortality [%] | Percent Growth Inhibition [%]
1 | O=C(Nc1cc(F)cc(F)c1)OC(c1ccc(C(F)(F)F)cc1)C1CCN(Cc2ccc(-c3csnn3)cc2)CC1 (stereo not drawn) [Compound 560] | 33 | 96 |  | 
2 | CCCOc1ccc(CN2CCC(C(OC(=O)Nc3ccc(Cl)cc3)c3cccc(C(F)(F)F)c3)CC2)cc1 (stereo not drawn) [Compound 485] | 100 | 100 |  | 
3 | CCON=Cc1ccc(CN2CCC(C(OC(=O)Nc3cccc(F)c3)c3ccc(Cl)cc3Cl)CC2)cc1 (stereo not drawn) [Compound 530] | 100 | 100 |  | 
4 | CCCOc1ccc(CN2CCC(=C(c3cccc(C(F)(F)F)c3)c3cccc(C(F)(F)F)c3)CC2)cc1 [Compound 45] | 0 | 24 |  | 
5 | CCCOc1ccc(CN2CCC(C(OC(=O)Nc3cccc(C(F)(F)F)c3)c3ccc(F)cc3)CC2)cc1 (stereo not drawn) [Compound 477] | 100 | 100 |  | 
6 | Cn1nnc(-c2ccc(CN3CCC(C(NC(=O)Oc4ccc([N+](=O)[O-])cc4)c4ccc(OC(F)(F)F)cc4)CC3)cc2)n1 (stereo not drawn) [Compound 358] | 83 | 99 |  | 
7 | O=C(Nc1cc(F)cc(F)c1)OC(c1ccc(C(F)(F)F)cc1)C1CCN(Cc2ccc(S(=O)(=O)NC3CCCC3)cc2)CC1 (stereo not drawn) [Compound 542] | 0 | 43 |  | 
8 | O=C(Nc1cc(F)cc(F)c1)OC(c1ccc(F)cc1)C1CCN(Cc2ccc(Oc3ccccn3)cc2)CC1 (stereo not drawn) [Compound 641] | 100 | 100 |  | 
9 | N#Cc1cccnc1Oc1ccc(CN2CCC(C(OC(=O)Nc3cc(F)cc(F)c3)c3ccc(OC(F)(F)F)cc3)CC2)cc1 (stereo not drawn) [Compound 710] |  |  | 100 | 100
10 | [O-][N+]1(Cc2ccc(OCc3nccs3)cc2)CCC(=C(c2ccc(C(F)(F)F)cc2)c2ccc(C(F)(F)F)cc2)CC1 (stereo not drawn) [Compound 105] | 100 | 100 |  | 
11 | CCOC(=O)Nc1ccc(C[N+]2([O-])CCC(=C(c3ccc(C(F)(F)F)cc3)c3ccc(C(F)(F)F)cc3)CC2)cc1 (stereo not drawn) [Compound 101, N-{4-[(4-{bis[4-(trifluoromethyl)phenyl]methylene}piperidyl)methyl]phenyl}ethoxycarboxamide, N-oxide] | 100 | 100 |  | 
12 | O=C(Nc1cc(F)cc(F)c1)OC(c1cc(Cl)cc(Cl)c1)C1CCN(Cc2ccc(Oc3ncccn3)cc2)CC1 (stereo not drawn) [Compound 728] |  |  | 100 | 100
13 | Cn1nnc(-c2ccc(CN3CCC(C(NCc4ccc(Br)cc4)c4ccc(OC(F)(F)F)cc4)CC3)cc2)n1 (stereo not drawn) [Compound 312] | 100 | 100 |  | 
14 | O=C(Nc1cc(C(F)(F)F)cc(C(F)(F)F)c1)OC(c1ccc(C(F)(F)F)cc1)C1CCN(Cc2ccc(Oc3ccccn3)cc2)CC1 (stereo not drawn) [Compound 248] | 100 | 100 |  | 
15 | CCn1nnc(-c2ccc(CN3CCC(C(OC(=O)Nc4ccc(Cl)cc4)c4ccc(Oc5ccccc5)cc4)CC3)cc2)n1 (stereo not drawn) [Compound 616] | 100 | 100 |  | 
16 | CCCOc1ccc(CN2CCC(C(OC(=O)Nc3ccc(Cl)cc3)c3ccc(Cl)cc3)CC2)cc1 (stereo not drawn) [Compound 470] | 100 | 100 |  | 
17 | CCn1nnc(-c2ccc(CN3CCC(=C(c4ccc(F)cc4)c4ccc(C(F)(F)F)cc4)CC3)cc2)n1 [Compound 81] | 100 | 100 |  | 
18 | O=C(Nc1cc(F)cc(F)c1)OC(c1ccc(C(F)(F)F)cc1)C1CCN(Cc2ccc(Oc3ncccc3Cl)cc2)CC1 (stereo not drawn) [Compound 683] | 100 | 100 |  | 
19 | Cn1nnc(-c2ccc(CN3CCC(C(NC(=O)c4ccccc4Cl)c4ccc(OC(F)(F)F)cc4)CC3)cc2)n1 (stereo not drawn) [Compound 322] | 0 | 78 |  | 
20 | O=C(Nc1cc(F)cc(F)c1)OC(c1ccc(OC(F)(F)F)cc1)C1CCN(Cc2ccc(F)cc2)CC1 (stereo not drawn) [Compound 461] | 0 | 98 |  | 
21 | O=C(Nc1ccc(Cl)cc1)OC(c1ccc(Cl)c(Cl)c1)C1CCN(Cc2ccc(Oc3ccccn3)cc2)CC1 (stereo not drawn) [Compound 645] | 100 | 100 |  | 
22 | CCn1nnc(-c2ccc(CN3CCC(C(OC(=O)Nc4ccc(Cl)c(Cl)c4)c4cc(Cl)cc(Cl)c4)CC3)cc2)n1 (stereo not drawn) [Compound 578] | 100 | 100 |  | 
23 | CCn1nnc(-c2ccc(CN3CCC(C(OC(=O)Nc4ccc(C(F)(F)F)cc4)c4ccccc4Cl)CC3)cc2)n1 (stereo not drawn) [Compound 571] | 100 | 100 |  | 
24 | COC(=O)N(c1ccc(C[N+]2([O-])CCC(C(OC(=O)Nc3cc(F)cc(F)c3)c3ccc(C(F)(F)F)cc3)CC2)cc1)c1ccccn1 (stereo not drawn) [Compound 761] |  |  | 100 | 100

Row | SMILES | Percent Mortality (surface-treated diet) [%] | Percent Growth Inhibition (surface-treated diet) [%] | Percent Mortality [%] | Percent Growth Inhibition [%]
25 | CC=CCOC(=O)Nc1ccc(CN2CCC(=C(c3ccc(Cl)cc3)c3ccc(Cl)cc3)CC2)cc1 [Compound 798] |  |  | 0 | 59
26 | O=C(Nc1cc(F)cc(F)c1)OC(c1ccc(C(F)(F)F)cc1)C1CC[N+]([O-])(Cc2ccc(Oc3ncccc3C(F)(F)F)cc2)CC1 (stereo not drawn) [Compound 759] |  |  | 100 | 100
27 | [O-][N+]1(Cc2ccc(Oc3ncccn3)cc2)CCC(=C(c2ccc(C(F)(F)F)cc2)c2ccccc2Cl)CC1 (stereo not drawn) [Compound 857] |  |  | 83 | 100
28 | FC(F)(F)c1ccc(C(=C2CCN(Cc3ccc(Oc4ncccn4)cc3)CC2)c2cc(Cl)cc(Cl)c2)cc1 [Compound 819] |  |  | 50 | 100
29 | O=C(Nc1cc(F)cc(F)c1)OC(c1ccc(C(F)(F)F)cc1)C1CC[N+]([O-])(Cc2ccc(Oc3ccccc3F)cc2)CC1 (stereo not drawn) [Compound 750] |  |  | 100 | 100
30 | CSc1ccc(NC(=O)OC(c2ccc(C(F)(F)F)cc2)C2CCN(Cc3ccc(Oc4ccccn4)cc3)CC2)cc1 (stereo not drawn) [Compound 702] |  |  | 100 | 100
31 | CCn1nnc(-c2ccc(CN3CCC(C(OC(=O)Nc4ccc(F)c(F)c4)c4cccc(F)c4)CC3)cc2)n1 (stereo not drawn) [Compound 584] | 100 | 100 |  | 
32 | FC(F)(F)c1ccc(C(=C2CCN(Cc3ccc(Oc4ncccn4)cc3)CC2)c2ccc(Cl)cc2)cc1 [Compound 816] |  |  | 100 | 100
33 | CCON=Cc1ccc(CN2CCC(C(OC(=O)Nc3ccc(Br)cc3)c3ccc(C(F)(F)F)cc3)CC2)cc1 (stereo not drawn) [Compound 183] | 100 | 100 |  | 
34 | O=C(Nc1cc(F)cc(F)c1)OC(c1ccc(C(F)(F)F)cc1)C1CCN(Cc2ccc(NC(=O)c3c(Cl)cccc3Cl)cc2)CC1 (stereo not drawn) [Compound 551] | 100 | 100 |  | 
35 | O=C(Nc1ccc(Cl)cc1)OC(c1ccc(F)cc1)C1CCN(Cc2ccc(Oc3ccccn3)cc2)CC1 (stereo not drawn) [Compound 639] | 100 | 100 |  | 
36 | Cn1nnc(-c2ccc(CN3CCC(C(NC(=O)Nc4ccc(I)cc4)c4ccc(OC(F)(F)F)cc4)CC3)cc2)n1 (stereo not drawn) [Compound 341] | 100 | 100 |  | 
37 | CCn1nnc(-c2ccc(CN3CCC(C(OC(=O)Nc4cccc(Br)c4)c4ccc(C(F)(F)F)cc4)CC3)cc2)n1 (stereo not drawn) [Compound 268] | 100 | 100 |  | 
38 | O=C(Nc1ccccc1Cl)OC(c1ccc(C(F)(F)F)cc1)C1CCN(Cc2ccc(Oc3ccccn3)cc2)CC1 (stereo not drawn) [Compound 662] | 100 | 100 |  | 
39 | CCn1nnc(-c2ccc(CN3CCC(C(OC(=O)Nc4ccc(F)c(F)c4)c4ccc(-c5ccccc5)cc4)CC3)cc2)n1 (stereo not drawn) [Compound 613] | 83 | 100 |  | 
40 | CC(C)NC(=O)Oc1ccc(CN2CCC(=C(c3ccc(C(F)(F)F)cc3)c3ccc(C(F)(F)F)cc3)CC2)cc1 [Compound 792] |  |  | 100 | 100
41 | O=C(NC1CCCCC1)OC(c1ccc(C(F)(F)F)cc1)C1CCN(Cc2ccc(Oc3ccccn3)cc2)CC1 (stereo not drawn) [Compound 432] | 100 | 100 |  | 
42 | CCCOc1ccc(CN2CCC(C(OC(=O)Nc3cc(F)cc(F)c3)c3ccc(Cl)c(Cl)c3)CC2)cc1 (stereo not drawn) [Compound 482] | 100 | 100 |  | 
43 | CC(C)N(C)C(=O)OC(c1ccc(C(F)(F)F)cc1)C1CCN(Cc2ccc(Oc3ccccn3)cc2)CC1 (stereo not drawn) [Compound 778] |  |  | 0 | 100
44 | CCON=Cc1ccc(CN2CCC(C(OC(=O)Nc3ccc(-c4ccccc4)cc3)c3ccc(C(F)(F)F)cc3)CC2)cc1 (stereo not drawn) [Compound 212] | 100 | 100 |  | 
45 | [O-][N+]1(Cc2ccc(-c3ccccn3)cc2)CCC(=C(c2ccc(C(F)(F)F)cc2)c2ccc(C(F)(F)F)cc2)CC1 (stereo not drawn) [Compound 840] |  |  | 100 | 100
46 | O=C(Nc1ccc(F)cc1)OC(c1ccc(Cl)c(Cl)c1)C1CCN(Cc2ccc(Oc3ccccn3)cc2)CC1 (stereo not drawn) [Compound 646] | 100 | 100 |  | 
47 | CCn1nnc(-c2ccc(CN3CCC(C(OC(=O)Nc4ccc(-c5ccccc5)cc4)c4ccc(OC)cc4)CC3)cc2)n1 (stereo not drawn) [Compound 607] | 100 | 100 |  | 
48 | CCn1nnc(-c2ccc(CN3CCC(=C(c4ccc(F)cc4)c4ccc(Cl)cc4)CC3)cc2)n1 [Compound 79] | 83 | 100 |  | 
